For this experiment, the system named is mice, LPC-1 plasma cell tumor ip, median survival T/C. Put plainly: NCI In Vivo Anticancer Drug Screen. Data for tumor model Lieberman Plasma Cell No. 1 (LPC-1) (intraperitoneal) in unknown mice. The conditions noted are these: endpoint: median survival time, higher = longer survival. Here is the method:
The antitumor activity of compounds was measured in mice bearing transplantable tumors. Survival or tumor size were measured and the results are expressed as the measurement made in the treated group (T) divided by the measurement made in the vehicle treated control group (C). The tumor model used in this assay is Lieberman Plasma Cell No. 1 (LPC-1) (intraperitoneal) in unknown mice

Ten molecules from PubChem BioAssay AID344 (DTP/NCI, 2004) can be followed below.

Where “and” joins values, the source holds several entries; their conditions need not be identical. Identical values can stand only once. Toxic doses and inconclusive results are not listed.

Consider `CNNCc1ccc(C(=O)NC(C)C)cc1`, for which the T/C reads like this: (dose: 26.0 mg/kg/injection, schedule: Q01DX028 (sc), vehicle: saline) 96 % of control; (dose: 65.0 mg/kg/injection, schedule: Q01DX028 (sc), vehicle: saline) 166 % of control; (dose: 90.0 mg/kg/injection, schedule: Q01DX028 (sc), vehicle: saline) 115 % of control; (dose: 108.0 mg/kg/injection, schedule: Q01DX028 (sc), vehicle: saline) 180 % of control; (dose: 135.0 mg/kg/injection, schedule: Q01DX028 (sc), vehicle: saline) 100 % of control; (dose: 300.0 mg/kg/injection, schedule: Q01DX028 (sc), vehicle: saline) 114 % of control. Also, the T/C (dose: 500.0 mg/kg/injection, schedule: Q01DX028 (sc), vehicle: saline) was 95 % of control.

Take `O=NN(CCCl)C(=O)NCCCl`: the T/C was 109 % of control (dose: 0.65 mg/kg/injection, schedule: Q01DX028 (sc), vehicle: saline); 107 % of control (dose: 1.08 mg/kg/injection, schedule: Q01DX028 (sc), vehicle: saline); 157 % of control (dose: 2.4 mg/kg/injection, schedule: Q01DX028 (sc), vehicle: saline); 157 % of control and 185 % of control (dose: 3.0 mg/kg/injection, schedule: Q01DX028 (sc), vehicle: saline); 195 % of control and 202 % of control (dose: 5.0 mg/kg/injection, schedule: Q01DX028 (sc), vehicle: saline).

Take `O=c1ccc2cc(OC3OC(CO)C(O)C(O)C3O)c(O)cc2o1` (stereo not drawn): the T/C is, setting by setting: (dose: 400.0 mg/kg/injection, schedule: Q01DX028 (sc), vehicle: carboxymethylcellulose (CMC)) 100 % of control; (dose: 600.0 mg/kg/injection, schedule: Q01DX028 (sc), vehicle: carboxymethylcellulose (CMC)) 100 % of control; (dose: 900.0 mg/kg/injection, schedule: Q01DX028 (sc), vehicle: carboxymethylcellulose (CMC)) 97 % of control.

For the molecule `Cn1cnc([N+](=O)[O-])c1Sc1nc(N)nc2nc[nH]c12`, the T/C by setting is: (dose: 0.5 mg/kg/injection, schedule: Q01DX028 (sc), vehicle: carboxymethylcellulose (CMC)) 97 % of control; (dose: 1.0 mg/kg/injection, schedule: Q01DX028 (sc), vehicle: carboxymethylcellulose (CMC)) 117 % of control; (dose: 4.0 mg/kg/injection, schedule: Q01DX028 (sc), vehicle: carboxymethylcellulose (CMC)) 100 % of control.

In the case of `C[C@]12C=CC(=O)C=C1CC[C@@H]1[C@@H]2C(=O)C[C@@]2(C)[C@H]1CC[C@]2(O)C(=O)CO`, the T/C runs as follows: (dose: 16.0 mg/kg/injection, schedule: Q01DX028 (sc), vehicle: water) 86 % of control; (dose: 32.0 mg/kg/injection, schedule: Q01DX028 (sc), vehicle: water) 86 % of control; (dose: 50.0 mg/kg/injection, schedule: Q01DX028 (sc), vehicle: water) 105 % of control; (dose: 128.0 mg/kg/injection, schedule: Q01DX028 (sc), vehicle: water) 91 % of control; (dose: 200.0 mg/kg/injection, schedule: Q01DX028 (sc), vehicle: water) 92 % of control.

For `N=C(N)SCc1c2ccccc2c(CSC(=N)N)c2ccccc12`, the T/C reads like this: (dose: 2.5 mg/kg/injection, schedule: Q01DX028 (sc), vehicle: carboxymethylcellulose (CMC)) 97 % of control; (dose: 5.0 mg/kg/injection, schedule: Q01DX028 (sc), vehicle: carboxymethylcellulose (CMC)) 112 % of control; (dose: 10.0 mg/kg/injection, schedule: Q01DX028 (sc), vehicle: carboxymethylcellulose (CMC)) 95 % of control; (dose: 20.0 mg/kg/injection, schedule: Q01DX028 (sc), vehicle: carboxymethylcellulose (CMC)) 117 % of control; (dose: 40.0 mg/kg/injection, schedule: Q01DX028 (sc), vehicle: carboxymethylcellulose (CMC)) 115 % of control.

For the molecule `NC(Cc1ccc(N(CCCl)CCCl)cc1)C(=O)O` (stereo not drawn), the T/C (dose: 2.0 mg/kg/injection, schedule: Q01DX028 (sc), vehicle: methylcellulose (MC)) is 180 % of control; the T/C (dose: 4.0 mg/kg/injection, schedule: Q01DX028 (sc), vehicle: methylcellulose (MC)) was 155 % of control; the T/C (dose: 8.0 mg/kg/injection, schedule: Q01DX028 (sc), vehicle: methylcellulose (MC)) is 108 % of control.

Regarding `CS(=O)(=O)OCCN(CCOS(C)(=O)=O)c1ccc(C=Nc2ccc3oc(=O)ccc3c2)cc1`, the T/C runs as follows: (dose: 3.5 mg/kg/injection, schedule: Q01DX Z (sc), vehicle: carboxymethylcellulose (CMC)) 166 % of control; (dose: 3.8 mg/kg/injection, schedule: Q01DX028 (sc), vehicle: steriod suspending solution) 165 % of control; (dose: 7.0 mg/kg/injection, schedule: Q01DX Z (sc), vehicle: carboxymethylcellulose (CMC)) 177 % of control; (dose: 7.5 mg/kg/injection, schedule: Q01DX028 (sc), vehicle: steriod suspending solution) 188 % of control; (dose: 14.0 mg/kg/injection, schedule: Q01DX Z (sc), vehicle: carboxymethylcellulose (CMC)) 216 % of control; (dose: 15.0 mg/kg/injection, schedule: Q01DX028 (sc), vehicle: steriod suspending solution) 250 % of control. Also, the T/C (dose: 28.0 mg/kg/injection, schedule: Q01DX Z (sc), vehicle: carboxymethylcellulose (CMC)) was 161 % of control and the T/C (dose: 30.0 mg/kg/injection, schedule: Q01DX028 (sc), vehicle: steriod suspending solution) is 230 % of control.

Consider `CS(=O)(=O)OCCCCCOS(C)(=O)=O`, for which the T/C was 107 % of control (dose: 10.0 mg/kg/injection, schedule: Q01DX028 (sc), vehicle: water); 107 % of control (dose: 40.0 mg/kg/injection, schedule: Q01DX028 (sc), vehicle: water); 120 % of control (dose: 44.0 mg/kg/injection, schedule: Q01DX028 (sc), vehicle: carboxymethylcellulose (CMC)).

In the case of `NC(=O)c1ccc(N)nc1`, the T/C is 100 % of control (dose: 0.16 mg/kg/injection, schedule: Q01DX028 (sc), vehicle: water); 97 % of control (dose: 0.32 mg/kg/injection, schedule: Q01DX028 (sc), vehicle: water); 95 % of control (dose: 0.65 mg/kg/injection, schedule: Q01DX028 (sc), vehicle: water); 97 % of control (dose: 1.25 mg/kg/injection, schedule: Q01DX028 (sc), vehicle: water); 100 % of control (dose: 2.5 mg/kg/injection, schedule: Q01DX028 (sc), vehicle: water); 107 % of control (dose: 5.0 mg/kg/injection, schedule: Q01DX028 (sc), vehicle: water).
